Assay results published in Sander's compilation of Henry's law constants (doi:10.1021/es00169a013).

Assay: Henry solubility constant Hcp at 298.15 K (mol/(m3 Pa))
Details: reference: Dunnivant et al. (1988)

Row | Compound | Henry solubility constant Hcp
1 | Clc1cccc(-c2cccc(Cl)c2Cl)c1Cl [2,2',3,3'-tetrachlorobiphenyl] | 0.049
2 | Clc1cc(Cl)c(-c2cc(Cl)c(Cl)cc2Cl)cc1Cl [2,2',4,4',5,5'-hexachlorobiphenyl] | 0.075
3 | Clc1cc(Cl)c(-c2c(Cl)cc(Cl)cc2Cl)c(Cl)c1 [2,2',4,4',6,6'-hexachlorobiphenyl] | 0.013
4 | Clc1ccc(Cl)c(-c2cc(Cl)c(Cl)cc2Cl)c1 [2,2',4,5,5'-pentachlorobiphenyl] | 0.039
5 | Clc1ccc(Cl)c(-c2cc(Cl)ccc2Cl)c1 [2,2',5,5'-tetrachlorobiphenyl] | 0.029
6 | Clc1cccc(Cl)c1-c1c(Cl)cccc1Cl [2,2',6,6'-tetrachlorobiphenyl] | 0.018
7 | Clc1ccccc1-c1ccccc1Cl [2,2'-dichlorobiphenyl] | 0.029
8 | Clc1cccc(-c2cc(Cl)ccc2Cl)c1 [2,3',5-trichlorobiphenyl] | 0.03
9 | Clc1cc(Cl)c(-c2ccccc2)c(Cl)c1 [2,4,6-trichlorobiphenyl] | 0.015
10 | Clc1ccc(Cl)c(-c2ccccc2)c1 [2,5-dichlorobiphenyl] | 0.025
11 | Clc1ccc(-c2ccc(Cl)c(Cl)c2)cc1Cl [3,3',4,4'-tetrachlorobiphenyl] | 0.1
12 | Clc1cccc(-c2cccc(Cl)c2)c1 [3,3'-dichlorobiphenyl] | 0.042
13 | Clc1ccc(-c2ccccc2)cc1Cl [3,4-dichlorobiphenyl] | 0.048
14 | Clc1ccc(-c2ccc(Cl)cc2)cc1 [4,4'-dichlorobiphenyl] | 0.05
